Each structure is given as a SMILES string. ≈ marks a conversion by molar mass, not a printed value.

Holding throughout (type): cell-based
One test concerns P. aeruginosa PAO1. Description: Broth microdilution MIC, P. aeruginosa. As to conditions: Pseudomonas aeruginosa, iron-depleted CAMHB, OD600 ≤0.15, read-out: MIC (μg/mL) Gram-negative PSA. In a few lines: (§1)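 Growth was scored by OD600 after incubation at 35° C: ≤0.15 defined the MIC, or ≤0.19 for N. gonorrhoeae in fastidious broth under 5% CO2. Other strains grew in iron-depleted CAMHB.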

The next test deals with E. coli (tolC) JW5503-1. The test can be described thus: Broth microdilution MIC, E. coli efflux-deficient (tolC). As to conditions: Escherichia coli, read-out: MIC (μg/mL) Gram-negative EC Efflux. A digest of the protocol:
as §1

The subject of test [1] is E. coli (wild-type) BW25113. The test can be described thus: Broth microdilution MIC, E. coli wild-type. The note with it: Escherichia coli, iron-depleted CAMHB, OD600 ≤0.15, read-out: MIC (μg/mL) Gram-negative EC. A digest of the protocol: as §1
Another test has as its system S. aureus ATCC 29213. Description: Broth microdilution MIC, S. aureus. The note with it: Staphylococcus aureus, ATCC29213, iron-depleted CAMHB, OD600 ≤0.15, read-out: MIC (μg/mL) Gram positive SA. A digest of the protocol: as §1
The subject of test [2] is A. baumannii JMI #1186154. Description: Broth microdilution MIC, A. baumannii. The note with it: Acinetobacter baumannii, iron-depleted CAMHB, OD600 ≤0.15, read-out: MIC (μg/mL) Gram-negative ACB. In a few lines: as §1
In the next test the test system is N. gonorrhoeae WHO-Z. The test can be described thus: Broth microdilution MIC, N. gonorrhoeae. The note with it: Neisseria gonorrhoeae, read-out: MIC (μg/mL) Gram-negative GC. In a few lines:
as §1

In test [3] the test system is K. pneumoniae ATCC 700603. Description: Broth microdilution MIC, K. pneumoniae. As to conditions: Klebsiella pneumoniae, ATCC700603, read-out: MIC (μg/mL) Gram-negative KPN. A digest of the protocol:
as §1

Test [4] concerns P. aeruginosa (multi-pump-gene mutant) PAM1626. The test can be described thus: Broth microdilution MIC, P. aeruginosa efflux-deficient. The note with it: Pseudomonas aeruginosa, read-out: MIC (μg/mL) Gram-negative PSA Efflux. In a few lines: as §1

As for `CN[C@H](CC(C)C)C(=O)N[C@H]1C(=O)N[C@@H](CC(N)=O)C(=O)N[C@H]2C(=O)N[C@H]3C(=O)N[C@H](C(=O)N[C@H](C(=O)NCCCCN4C(=O)c5cc(O)c(O)cc5C4=O)c4cc(O)cc(O)c4-c4cc3ccc4O)[C@H](O)c3ccc(c(Cl)c3)Oc3cc2cc(c3O[C@@H]2O[C@H](CO)C(O)C(O)[C@H]2O[C@H]2CC(C)(N)[C@H](O)[C@H](C)O2)Oc2ccc(cc2Cl)[C@H]1O` (stereo partly shown) [Compound 2], the MIC is more than 64 µg/mL in the test with P. aeruginosa PAO1; 32 µg/mL (≈ 19 µM) in the test with E. coli (tolC) JW5503-1; 32 µg/mL (≈ 19 µM) in test [1]; 8 µg/mL (≈ 4.76 µM) in the test with S. aureus ATCC 29213; 32 µg/mL (≈ 19 µM) in test [2]; more than 64 µg/mL with N. gonorrhoeae WHO-Z. Moreover, the MIC in test [3] and in test [4] was more than 64 µg/mL throughout.
As for `CN[C@H](CC(C)C)C(=O)N[C@H]1C(=O)N[C@@H](CC(N)=O)C(=O)N[C@H]2C(=O)N[C@H]3C(=O)N[C@H](C(=O)N[C@H](C(=O)NCCCNS(=O)(=O)c4ccc(O)c(O)c4)c4cc(O)cc(O)c4-c4cc3ccc4O)[C@H](O)c3ccc(c(Cl)c3)Oc3cc2cc(c3O[C@@H]2O[C@H](CO)C(O)C(O)[C@H]2O[C@H]2CC(C)(N)[C@H](O)[C@H](C)O2)Oc2ccc(cc2Cl)[C@H]1O` (stereo partly shown) [Compound 16], the MIC with P. aeruginosa PAO1 was more than 64 µg/mL; with E. coli (tolC) JW5503-1, 64 µg/mL (≈ 38.2 µM); in test [1] it was 32 µg/mL (≈ 19.1 µM); with S. aureus ATCC 29213, 4 µg/mL (≈ 2.38 µM); in test [2], 4 µg/mL (≈ 2.38 µM); with N. gonorrhoeae WHO-Z, more than 64 µg/mL. Also, the MIC in test [3] and in test [4] was more than 64 µg/mL throughout.
Take `CNC(CC(C)C)C(=O)NC1C(=O)NC(CC(N)=O)C(=O)NC2C(=O)NC3C(=O)NC(C(=O)N[C@H](C(=O)NCCc4cn(CCNC(=O)c5cccc(O)c5O)nn4)c4cc(O)cc(O)c4-c4cc3ccc4O)C(O)c3ccc(c(Cl)c3)Oc3cc2cc(c3OC2OC(CO)C(O)C(O)C2OC2CC(C)(N)C(O)C(C)O2)Oc2ccc(cc2Cl)C1O` (stereo partly shown) [Compound 15]: the MIC with P. aeruginosa PAO1 is more than 64 µg/mL; in the test with E. coli (tolC) JW5503-1, more than 64 µg/mL; in test [1], more than 64 µg/mL; in the test with S. aureus ATCC 29213 it was 4 µg/mL (≈ 2.32 µM); in test [2], 16 µg/mL (≈ 9.29 µM); in the test on N. gonorrhoeae WHO-Z, more than 64 µg/mL. In addition, the MIC in test [3] and in test [4] was more than 64 µg/mL throughout.
As to `CN[C@H](CC(C)C)C(=O)N[C@H]1C(=O)N[C@@H](CC(N)=O)C(=O)N[C@H]2C(=O)N[C@H]3C(=O)N[C@H](C(=O)N[C@H](C(=O)NCCCNC(=O)c4cccc(O)c4O)c4cc(O)cc(O)c4-c4cc3ccc4O)[C@H](O)c3ccc(c(Cl)c3)Oc3cc2cc(c3O[C@@H]2O[C@H](CO)C(O)C(O)[C@H]2O[C@H]2CC(C)(N)[C@H](O)[C@H](C)O2)Oc2ccc(cc2Cl)[C@H]1O` (stereo partly shown) [Compound 12], the MIC with P. aeruginosa PAO1 is more than 64 µg/mL; with E. coli (tolC) JW5503-1, 64 µg/mL (≈ 39 µM); in test [1], 64 µg/mL (≈ 39 µM); in the test with S. aureus ATCC 29213 it was 2 µg/mL (≈ 1.22 µM); in test [2] it was 4 µg/mL (≈ 2.44 µM); with N. gonorrhoeae WHO-Z, more than 64 µg/mL. Also, the MIC in test [3] and in test [4] was more than 64 µg/mL throughout.
On to `CN[C@H](CC(C)C)C(=O)N[C@H]1C(=O)N[C@@H](CC(N)=O)C(=O)N[C@H]2C(=O)N[C@H]3C(=O)N[C@H](C(=O)N[C@H](C(=O)NCCOCCOCCNC(=O)c4ccc(O)c(O)c4Cl)c4cc(O)cc(O)c4-c4cc3ccc4O)[C@H](O)c3ccc(c(Cl)c3)Oc3cc2cc(c3O[C@@H]2O[C@H](CO)C(O)C(O)[C@H]2O[C@H]2CC(C)(N)[C@H](O)[C@H](C)O2)Oc2ccc(cc2Cl)[C@H]1O` (stereo in doubt) [Compound 11], for which the MIC was more than 64 µg/mL with P. aeruginosa PAO1; more than 64 µg/mL in the test on E. coli (tolC) JW5503-1; 64 µg/mL (≈ 36.6 µM) in test [1]; 4 µg/mL (≈ 2.29 µM) with S. aureus ATCC 29213; 1 µg/mL (≈ 0.571 µM) in test [2]; more than 64 µg/mL with N. gonorrhoeae WHO-Z. Besides, the MIC in test [3] and in test [4] was more than 64 µg/mL in each case.
